Measurements: ChEMBL document CHEMBL4513134, “CO-ADD screening of University of Queensland (Australia) compounds” (2021)

Test system: Escherichia coli
Assay: Antibacterial activity against Escherichia coli ATCC 25922 (CO-ADD:GN_001); MIC in CAMBH media using NBS plates, by OD(600)
Conditions: Concentration 32.0 ug.mL-1

SMILES | inhibition
CN(CCO)C(=O)c1ncc([N+](=O)[O-])[nH]1 | Average; N=2
CC(=O)OCCn1c(-c2ccccc2)cn2cc([N+](=O)[O-])nc2c1=O | Average; N=2
NC(=O)c1ncc([N+](=O)[O-])[nH]1 | Average; N=2
NC(=O)c1nc([N+](=O)[O-])cn1Cc1ccc(C(F)(F)F)cc1 | Average; N=2
NC(=O)c1nc([N+](=O)[O-])cn1CC1CCCCC1 | Average; N=2
CC(=O)OCCn1cc([N+](=O)[O-])nc1C(N)=O | Average; N=2
O=C(NCCO)c1ncc([N+](=O)[O-])[nH]1 | Average; N=2
O=C(c1ncc([N+](=O)[O-])[nH]1)N1CCCC1 | Average; N=2
CC(NC(=O)c1ncc([N+](=O)[O-])[nH]1)c1ccc(F)cc1 (stereo not given) | Average; N=2
NC(=O)c1nc([N+](=O)[O-])cn1Cc1cccc(OC(F)(F)F)c1 | Average; N=2
NC(=O)c1nc([N+](=O)[O-])cn1Cc1ccccn1 | Average; N=2
Cc1ccc(CCn2cc([N+](=O)[O-])nc2C(N)=O)cc1 | Average; N=2
CS(=O)(=O)c1ccc(CNC(=O)c2ncc([N+](=O)[O-])[nH]2)cc1 | Average; N=2

Test system: Acinetobacter baumannii
Assay: Antibacterial activity against Acinetobacter baumannii ATCC 19606 (CO-ADD:GN_034); MIC in CAMBH media using NBS plates, by OD600
Conditions: Concentration 32.0 ug.mL-1

SMILES | inhibition
CN(CCO)C(=O)c1ncc([N+](=O)[O-])[nH]1 | Average; N=2
CC(=O)OCCn1c(-c2ccccc2)cn2cc([N+](=O)[O-])nc2c1=O | Average; N=2
NC(=O)c1ncc([N+](=O)[O-])[nH]1 | Average; N=2
NC(=O)c1nc([N+](=O)[O-])cn1Cc1ccc(C(F)(F)F)cc1 | Average; N=2
NC(=O)c1nc([N+](=O)[O-])cn1CC1CCCCC1 | Average; N=2
CC(=O)OCCn1cc([N+](=O)[O-])nc1C(N)=O | Average; N=2
O=C(NCCO)c1ncc([N+](=O)[O-])[nH]1 | Average; N=2
O=C(c1ncc([N+](=O)[O-])[nH]1)N1CCCC1 | Average; N=2
CC(NC(=O)c1ncc([N+](=O)[O-])[nH]1)c1ccc(F)cc1 (stereo not given) | Average; N=2
NC(=O)c1nc([N+](=O)[O-])cn1Cc1cccc(OC(F)(F)F)c1 | Average; N=2
NC(=O)c1nc([N+](=O)[O-])cn1Cc1ccccn1 | Average; N=2
Cc1ccc(CCn2cc([N+](=O)[O-])nc2C(N)=O)cc1 | Average; N=2
CS(=O)(=O)c1ccc(CNC(=O)c2ncc([N+](=O)[O-])[nH]2)cc1 | Average; N=2

Test system: Pseudomonas aeruginosa
Assay: not given
Conditions: ATCC 27853, Concentration 32.0 ug.mL-1

SMILES | inhibition
CN(CCO)C(=O)c1ncc([N+](=O)[O-])[nH]1 | Average; N=2
CC(=O)OCCn1c(-c2ccccc2)cn2cc([N+](=O)[O-])nc2c1=O | Average; N=2
NC(=O)c1ncc([N+](=O)[O-])[nH]1 | Average; N=2
NC(=O)c1nc([N+](=O)[O-])cn1Cc1ccc(C(F)(F)F)cc1 | Average; N=2
NC(=O)c1nc([N+](=O)[O-])cn1CC1CCCCC1 | Average; N=2
CC(=O)OCCn1cc([N+](=O)[O-])nc1C(N)=O | Average; N=2
O=C(NCCO)c1ncc([N+](=O)[O-])[nH]1 | Average; N=2
O=C(c1ncc([N+](=O)[O-])[nH]1)N1CCCC1 | Average; N=2
CC(NC(=O)c1ncc([N+](=O)[O-])[nH]1)c1ccc(F)cc1 (stereo not given) | Average; N=2
NC(=O)c1nc([N+](=O)[O-])cn1Cc1cccc(OC(F)(F)F)c1 | Average; N=2
NC(=O)c1nc([N+](=O)[O-])cn1Cc1ccccn1 | Average; N=2
Cc1ccc(CCn2cc([N+](=O)[O-])nc2C(N)=O)cc1 | Average; N=2
CS(=O)(=O)c1ccc(CNC(=O)c2ncc([N+](=O)[O-])[nH]2)cc1 | Average; N=2

Test system: Klebsiella pneumoniae
Assay: not given
Conditions: ATCC 700603, Concentration 32.0 ug.mL-1

SMILES | inhibition
CN(CCO)C(=O)c1ncc([N+](=O)[O-])[nH]1 | Average; N=2
CC(=O)OCCn1c(-c2ccccc2)cn2cc([N+](=O)[O-])nc2c1=O | Average; N=2
NC(=O)c1ncc([N+](=O)[O-])[nH]1 | Average; N=2
NC(=O)c1nc([N+](=O)[O-])cn1Cc1ccc(C(F)(F)F)cc1 | Average; N=2
NC(=O)c1nc([N+](=O)[O-])cn1CC1CCCCC1 | Average; N=2
CC(=O)OCCn1cc([N+](=O)[O-])nc1C(N)=O | Average; N=2
O=C(NCCO)c1ncc([N+](=O)[O-])[nH]1 | Average; N=2
O=C(c1ncc([N+](=O)[O-])[nH]1)N1CCCC1 | Average; N=2
CC(NC(=O)c1ncc([N+](=O)[O-])[nH]1)c1ccc(F)cc1 (stereo not given) | Average; N=2
NC(=O)c1nc([N+](=O)[O-])cn1Cc1cccc(OC(F)(F)F)c1 | Average; N=2
NC(=O)c1nc([N+](=O)[O-])cn1Cc1ccccn1 | Average; N=2
Cc1ccc(CCn2cc([N+](=O)[O-])nc2C(N)=O)cc1 | Average; N=2
CS(=O)(=O)c1ccc(CNC(=O)c2ncc([N+](=O)[O-])[nH]2)cc1 | Average; N=2

Test system: Staphylococcus aureus
Assay: Antibacterial activity against Staphylococcus aureus MRSA ATCC 43300 (CO-ADD:GP_020); MIC in CAMBH media, using NBS plates, by OD(600)
Conditions: Concentration 32.0 ug.mL-1

SMILES | inhibition
CN(CCO)C(=O)c1ncc([N+](=O)[O-])[nH]1 | Average; N=2
CC(=O)OCCn1c(-c2ccccc2)cn2cc([N+](=O)[O-])nc2c1=O | Average; N=2
NC(=O)c1ncc([N+](=O)[O-])[nH]1 | Average; N=2
NC(=O)c1nc([N+](=O)[O-])cn1Cc1ccc(C(F)(F)F)cc1 | Average; N=2
NC(=O)c1nc([N+](=O)[O-])cn1CC1CCCCC1 | Average; N=2
CC(=O)OCCn1cc([N+](=O)[O-])nc1C(N)=O | Average; N=2
O=C(NCCO)c1ncc([N+](=O)[O-])[nH]1 | Average; N=2
O=C(c1ncc([N+](=O)[O-])[nH]1)N1CCCC1 | Average; N=2
CC(NC(=O)c1ncc([N+](=O)[O-])[nH]1)c1ccc(F)cc1 (stereo not given) | Average; N=2
NC(=O)c1nc([N+](=O)[O-])cn1Cc1cccc(OC(F)(F)F)c1 | Average; N=2
NC(=O)c1nc([N+](=O)[O-])cn1Cc1ccccn1 | Average; N=2
Cc1ccc(CCn2cc([N+](=O)[O-])nc2C(N)=O)cc1 | Average; N=2
CS(=O)(=O)c1ccc(CNC(=O)c2ncc([N+](=O)[O-])[nH]2)cc1 | Average; N=2
